In PubChem BioAssay AID2060486 (Molecular Pharmacology Branch, DTP, NCI, 2025):
Values joined by “and” are separate entries in the source; they are usually repeats but may differ in a detail not shown here. Equal values may be shown once.

Test system: IGROV1 complex spheroids (HUVEC, MSC), viability % test/control
Assay: Anticancer human tumor IGROV1 cell line growth inhibition [GQUAD];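 note: spheroids exposed to compounds for 7 days before readout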
Details: for viability, T/C: stronger effect = lower value; for IC50: curve of compound
Description: DNA G-quadruplex Stabilizer Agents in Combinations in Complex Spheroids
A high-throughput screen of multi-cell type tumor spheroids was designed to identify active combinations of DNA G-quadruplex stabilizer agents and targeted small molecules. Complex spheroids include a stromal component modeled by human endothelial cells (HUVEC) and fibroblasts modeled by human mesenchymal stem cells (MSCs). The concentration ranges selected for each drug and investigational agent were based upon clinically achievable concentrations if the clinical Cmax of the agent was known.
Compounds. The drugs and investigational agents: pidnarulex (CX-5461; NSC782164), APTO-253 (NSC789042), BRACO-19 (NSC847499), peposertib (NSC802822), ceralasertib (NSC780249), elimusertib (NSC800525), camonsertib (NSC841442), AZD-1390 (NSC803789), olaparib (NSC753686), talazoparib (NSC767125), ART-558 (NSC835418), sotorasib (NSC818433), MRTX-1133 (NSC836407), SN-38 (NSC673596), topotecan (NSC609699), etoposide (NSC141540), doxorubicin (NSC123127), gemcitabine (NSC613327), 5-fluorouracil (NSC19893), paclitaxel (NSC125973), vemurafenib (NSC761431), panobinostat (NSC761190), R-306465 (JNJ-16241199; NSC773264), adavosertib (NSC754352), TP-3654 (NSC805149), carboplatin (NSC241240), KSQ-4279 (NSC840948), and staurosporine (NSC755774) were obtained from the National Cancer Institute (NCI) Developmental Therapeutics Program Chemical Repository (34). The FDA-approved anticancer drug set is available from the NCI Developmental Therapeutics Program. […] The stock solutions were prepared in dimethyl sulfoxide (DMSO, Sigma-Aldrich, St. Louis, MO, cat. D2650) at 800-fold the tested concentration and stored at -70 degrees C prior to their use. All drugs and investigational agents were tested over a range starting from a high concentration at or near the clinical Cmax and decreasing in half-log increments. If the clinical Cmax for an agent had not been determined, the highest concentration tested was 10 microM.
2.3 Cell Culture. All cells were maintained in an incubator at 37 degrees C and 5% CO2 with 95% humidity. The PDC lines were cultured according to standard operating procedures established by the NCI PDMR. All PDCs were thawed and cultured in Matrigel-coated flasks prepared with a working solution of 1X Ham's F-12 nutrient mix, without supplementation (Invitrogen, cat. 11765054), 100 U/mL penicillin-streptomycin (Invitrogen, cat. 15140122), and 2.5% Matrigel (Corning Inc., cat. 354248) for the first three passages. The 857933-349-R-J2-PDC line was cultured in 6C/Colon 1B media, which includes advanced DMEM/F-12 (Thermo Fisher Scientific, cat. 12634028), 10 mM HEPES (Thermo Fisher Scientific, cat. 15630080), 1X GlutaMAX supplement (Thermo Fisher Scientific, cat. 35050061), 0.1 mg/mL primocin (InvivoGen, cat. ant-pm-2), 10% defined fetal bovine serum, heat inactivated (HyClone Laboratories Inc., cat. SH30070.03HI), 50% L-WRN conditioned media (ATCC, cat. CRL-3276), 1.25 mM N-Acetyl-L-cysteine (Sigma-Aldrich, cat. A9165), 10 mM nicotinamide (Sigma-Aldrich, cat. N0636), 1X B-27 supplement (Thermo Fisher Scientific, cat. 17504044), 1X N-2 supplement (Thermo Fisher Scientific, cat. 17502048), 10 microM Y-27632 dihydrochloride (Tocris Bioscience, cat. 1254), and 50 ng/mL human EGF recombinant protein (Thermo Fisher Scientific, cat. PHG0311). The 485176-168-R4-J1-PDC line was cultured in Panc media, which includes all 6C/Colon 1B media components plus 100 ng/mL human FGF-10 (Thermo Fisher Scientific, cat. 100-26), 500 nM SB-431542 (Selleckchem, cat. S1067), and gastrin (Tocris, cat. 3006).
[…]

Compound | viability, T/C (compound 0.0316 µM) | viability, T/C (compound 0.1 µM) | viability, T/C (compound 0.316 µM) | viability, T/C (compound 1 µM) | viability, T/C (compound 3.16 µM) | viability, T/C (compound 10 µM) | IC50 | viability, T/C (compound 0.000999 µM) | viability, T/C (compound 0.00316 µM) | viability, T/C (compound 0.00999 µM) | viability, T/C (compound 0.0999 µM)
C#Cc1c(F)ccc2cc(O)cc(-c3ncc4c(N5CC6CCC(C5)N6)nc(OCC56CCCN5CC(F)C6)nc4c3F)c12 (stereo not given) | 88.9% and 93.9% and 107% | 86.7% and 79.6% and 89.4% | 81.5% and 89.6% and 96.4% | 87.2% and 88.1% and 95.8% | 82% and 85% and 88.4% | 51.3% and 49% and 64.6% | > 10000 nM and 9690 nM | – | – | – | –
C=CC(=O)N1CCN(c2nc(=O)n(-c3c(C)ccnc3C(C)C)c3nc(-c4c(O)cccc4F)c(F)cc23)C(C)C1 (stereo not given) | 102% and 105% and 117% | 95.2% and 95.3% and 106% | 113% and 105% and 110% | 93% and 104% and 122% | 79.5% and 98.5% and 104% | 82.3% and 101% and 92% | > 10000 nM | – | – | – | –
C=CCn1c(=O)c2cnc(Nc3ccc(N4CCN(C)CC4)cc3)nc2n1-c1cccc(C(C)(C)O)n1 | 104% and 89% and 99.3% | 65.7% and 69.2% and 68.7% | 13.4% and 17.4% and 11.9% | 3.03% and 3.13% and 2.69% | 2.56% and 2.47% and 2.43% | 1.88% and 1.86% and 2.35% | 141 nM and 153 nM and 146 nM | – | – | – | –
CC(=O)O[C@H]1C(=O)[C@@]2(C)[C@H]([C@H](OC(=O)c3ccccc3)[C@]3(O)C[C@H](OC(=O)[C@H](O)[C@@H](NC(=O)c4ccccc4)c4ccccc4)C(C)=C1C3(C)C)[C@]1(OC(C)=O)CO[C@@H]1C[C@@H]2O | 5.95% and 6.39% and 7.02% | 6.41% and 7.03% and 6.33% | 5.74% and 6.73% and 6.26% | 5.25% and 5.94% and 5.15% | 5.64% and 4.86% and 4.9% | 4.25% and 4.95% and 4.52% | < 31.6 nM | – | – | – | –
CC(C)(O)C1CCC(Nc2ccc3ncc(-c4cccc(C(F)(F)F)c4)n3n2)CC1 (stereo not given) | 109% and 102% and 93.8% | 101% and 72.6% and 98.9% | 104% and 94.5% and 96.9% | 78.5% and 77.2% and 75.5% | 27% and 35.3% and 27.6% | 31.4% and 36.7% and 24.7% | 1940 nM and 2140 nM and 1840 nM | – | – | – | –
CC(C)n1c(=O)n(C)c2cnc3cc(F)c(-c4ccc(OCCCN5CCCCC5)nc4)cc3c21 | 91.1% and 96.5% and 97% | 87.8% and 82.1% and 91.4% | 91.3% and 101% and 92.9% | 68.5% and 77.6% and 81.7% | 49.1% and 59.8% and 61.3% | 16.9% and 16.3% and 16.1% | 2820 nM and 4020 nM and 4200 nM | – | – | – | –
CC1COCCN1c1cc(-c2ccnn2C)c2ccnc(-c3ccn[nH]3)c2n1 (stereo not given) | 81.8% and 73% and 68.8% | 26.6% and 25.6% and 26.2% | 11.2% and 10.4% and 10.8% | 7.62% and 7.53% and 5.64% | 4.7% and 5.08% and 4.64% | 3.56% and 3.83% and 3.46% | 61.9 nM and 55.2 nM and 52.7 nM | – | – | – | –
CC1COCCN1c1cc(C2(O)CC3CCC(C2)O3)c2cnn(-c3ccn[nH]3)c2n1 (stereo not given) | 51.5% and 57.1% and 50.6% | 16.8% and 21.7% and 20.7% | 7.14% and 8.09% and 7.26% | 4.84% and 5.33% and 5.42% | 2.68% and 4.74% and 3.78% | 1.72% and 2.09% and 2.04% | 32.6 nM and 39.6 nM and 32.3 nM | – | – | – | –
CC1COCCN1c1cc(C2(S(C)(=N)=O)CC2)nc(-c2ccnc3[nH]ccc23)n1 (stereo not given) | 105% and 96.1% and 78.7% | 73.3% and 84.4% and 94.9% | 95.4% and 94.3% and 89.6% | 59.5% and 44.8% and 50.7% | 12.6% and 14.1% and 58.1% | 7% and 6.85% and 8.5% | 1260 nM and 881 nM and 2970 nM | – | – | – | –
CCCS(=O)(=O)Nc1ccc(F)c(C(=O)c2c[nH]c3ncc(-c4ccc(Cl)cc4)cc23)c1F | 105% (2×) and 108% | 96.1% and 96.3% and 95.1% | 106% and 108% and 97.5% | 103% and 80.5% and 96.6% | 66.4% and 67.2% and 56.1% | 21.1% and 13.8% and 16.5% | 4800 nM and 4380 nM and 3780 nM | – | – | – | –
CC[C@@]1(O)C(=O)OCc2c1cc1n(c2=O)Cc2cc3c(CN(C)C)c(O)ccc3nc2-1 | 42.3% and 42.6% and 30.4% | – | 11.4% and 10.2% and 9.99% | – | – | – | 24.8 nM and 26.6 nM and 20.1 nM | 107% and 86.8% and 96.1% | 92.1% and 95.8% and 83% | 83.8% and 92.3% and 80.7% | 10.7% and 11.3% and 11%
CCc1c2c(nc3ccc(O)cc13)-c1cc3c(c(=O)n1C2)COC(=O)[C@]3(O)CC | 8.77% and 9.76% and 9.57% | – | 1.32% and 1.27% and 1.78% | – | – | – | 1 nM and < 0.999 nM | 50.7% and 46.3% and 39% | 13.2% and 15% | 10.7% and 11.2% and 9.68% | 4.33% and 4.71% and 5.08%
CN(C)c1ccc(Nc2c3ccc(NC(=O)CCN4CCCC4)cc3nc3cc(NC(=O)CCN4CCCC4)ccc23)cc1 | 103% [middle of 12 runs] | 101% [middle of 12 runs] | 103% [middle of 12 runs] | 100% [middle of 12 runs] | 87.4% [middle of 12 runs] | 52.3% [middle of 12 runs] | – | – | – | – | –
